Tests used:
BCL-XL = BCL-XL (Homo sapiens (Human), UniProt Q07817); assay: BCL-XL TR-FRET Assay (primary PPI inhibition); type: binding; settings: 60 min incubation; read-out: BCLxL (IC50 code, BCL-XL TR-FRET)
Protocol: BCL-XL TR-FRET Assay (BPS Bioscience, #50223)
(§1) The following assay concentrations and times were used: 10.5 ng BCL-XL, 5 μl of 1:100 anti-His Tb-labeled donor, 5 μl of 1:100 Dye-labeled acceptor, 5 μl of 1:80 BCL-XL Peptide Ligand, and 2 μl of test compound, with 60 min incubation time. The results of the assay were read using a Clariostar (BMG Labtech) plate reader with the following parameters: TR FRET, 340ex/620 and 665em; 60 μsec Delay; and 500 μsec integration.

BCL-2 = BCL-2 (Homo sapiens (Human), UniProt P10415); assay: BCL-2 TR-FRET Assay (primary PPI inhibition); type: binding; settings: 60 min incubation; read-out: BCL2 (IC50 code, BCL-2 TR-FRET)
Chain of BCL-2 (P10415 whole entry): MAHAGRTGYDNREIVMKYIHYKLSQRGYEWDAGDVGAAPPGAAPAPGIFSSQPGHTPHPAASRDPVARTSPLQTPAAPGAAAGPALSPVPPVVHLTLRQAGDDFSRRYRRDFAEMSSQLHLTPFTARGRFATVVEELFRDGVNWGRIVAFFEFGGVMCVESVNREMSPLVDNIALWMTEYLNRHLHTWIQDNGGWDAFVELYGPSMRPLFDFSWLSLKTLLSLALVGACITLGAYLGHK
Protocol: BCL-2 TR-FRET Assay (BPS Bioscience, #50222)
as §1, with “used: 3” for “used: 10.5”, “ng BCL-2,” for “ng BCL-XL,”, “of 1:40 BCL-2” for “of 1:80 BCL-XL”, “2 ul” for “2 μl”

Chain of BCL-XL (Q07817 whole entry): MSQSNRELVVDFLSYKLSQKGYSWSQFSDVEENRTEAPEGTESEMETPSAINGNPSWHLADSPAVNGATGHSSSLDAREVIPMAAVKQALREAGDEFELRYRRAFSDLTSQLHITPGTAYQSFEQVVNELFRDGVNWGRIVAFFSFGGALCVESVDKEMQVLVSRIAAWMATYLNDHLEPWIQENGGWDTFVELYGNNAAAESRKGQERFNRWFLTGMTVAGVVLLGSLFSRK

SMILES | IC50 (BCL-XL) [nM] | IC50 (BCL-2) [nM]
O=C(c1cc(-c2cc3c(cc2C(=O)N2Cc4ccccc4C[C@H]2CN2CCOCC2)OCO3)n2c1CCCC2)N(Cc1c(F)cccc1C(F)(F)F)c1ccc(O)cc1 [Compound 22, N-[2-fluoro-6-(trifluoromethyl)benzyl]-N-(4-hydroxyphenyl)-3-(6-{[(3S)-3-(morpholin-4-ylmethyl)-3,4-dihydroisoquinolin-2(1H)-yl]carbonyl}-1,3-benzodioxol-5-yl)-5,6,7,8-tetrahydroindolizine-1-carboxamide] | > 4000 | > 50
O=C(c1cc(-c2cc3c(cc2C(=O)N2Cc4ccccc4C[C@H]2CN2CCOCC2)OCO3)n2c1CCCC2)N(Cc1ccc(OC(F)(F)F)cc1)c1ccc(O)cc1 [Compound 26, N-(4-hydroxyphenyl)-3-(6-{[(3S)-3-(morpholin-4-ylmethyl)-3,4-dihydroisoquinolin-2(1H)-yl]carbonyl}-1,3-benzodioxol-5-yl)-N-[4-(trifluoromethoxy)benzyl]-5,6,7,8-tetrahydroindolizine-1-carboxamide] | > 4000 | > 50
CCOc1ccc(-c2nc(CN(C(=O)c3cc(-c4cc5c(cc4C(=O)N4Cc6ccccc6C[C@H]4CN4CCOCC4)OCO5)n4c3CCCC4)c3ccc(O)cc3)c(C)o2)cc1 [Compound 27, N-{[2-(4-ethoxyphenyl)-5-methyl-1,3-oxazol-4-yl]methyl}-N-(4-hydroxyphenyl)-3-(6-{[(3S)-3-(morpholin-4-ylmethyl)-3,4-dihydroisoquinolin-2(1H)-yl]carbonyl}-1,3-benzodioxol-5-yl)-5,6,7,8-tetrahydroindolizine-1-carboxamide] | > 4000 | > 50
Cc1cccc(C)c1CN(C(=O)c1cc(-c2cc3c(cc2C(=O)N2Cc4ccccc4C[C@H]2CN2CCOCC2)OCO3)n2c1CCCC2)c1ccc(O)cc1 [Compound 30, N-(2,6-dimethylbenzyl)-N-(4-hydroxyphenyl)-3-(6-{[(3S)-3-(morpholin-4-ylmethyl)-3,4-dihydroisoquinolin-2(1H)-yl]carbonyl}-1,3-benzodioxol-5-yl)-5,6,7,8-tetrahydroindolizine-1-carboxamide] |  | > 50
Cc1cccc(F)c1CN(C(=O)c1cc(-c2cc3c(cc2C(=O)N2Cc4ccccc4C[C@H]2CN2CCOCC2)OCO3)n2c1CCCC2)c1ccc(O)cc1 [Compound 32, N-(2-fluoro-6-methylbenzyl)-N-(4-hydroxyphenyl)-3-(6-{[(3S)-3-(morpholin-4-ylmethyl)-3,4-dihydroisoquinolin-2(1H)-yl]carbonyl}-1,3-benzodioxol-5-yl)-5,6,7,8-tetrahydroindolizine-1-carboxamide] |  | 10 to 50
Cc1ccc(C(F)(F)F)cc1CN(C(=O)c1cc(-c2cc3c(cc2C(=O)N2Cc4ccccc4C[C@H]2CN2CCOCC2)OCO3)n2c1CCCC2)c1ccc(O)cc1 [Compound 38, N-(4-hydroxyphenyl)-N-[2-methyl-5-(trifluoromethyl)benzyl]-3-(6-{[(3S)-3-(morpholin-4-ylmethyl)-3,4-dihydroisoquinolin-2(1H)-yl]carbonyl}-1,3-benzodioxol-5-yl)-5,6,7,8-tetrahydroindolizine-1-carboxamide] |  | 10 to 50
CC(C)(C)OC(=O)c1cccc(CN(C(=O)c2cc(-c3cc4c(cc3C(=O)N3Cc5ccccc5C[C@H]3CN3CCOCC3)OCO4)n3c2CCCC3)c2ccc(O)cc2)c1 [Compound 46, tert-Butyl 3-[(4-hydroxy-N-[3-[6-[(3S)-3-(morpholinomethyl)-3,4-dihydro-1H-isoquinoline-2-carbonyl]-1,3-benzodioxol-5-yl]-5,6,7,8-tetrahydroindolizine-1-carbonyl]anilino)methyl]benzoate] |  | 10 to 50
N#Cc1ccccc1CN(C(=O)c1cc(-c2cc3c(cc2C(=O)N2Cc4ccccc4C[C@H]2CN2CCOCC2)OCO3)n2c1CCCC2)c1ccc(O)cc1 [Compound 47, N-[(2-Cyanophenyl)methyl]-N-(4-hydroxyphenyl)-3-[6-[(3S)-3-(morpholinomethyl)-3,4-dihydro-1H-isoquinoline-2-carbonyl]-1,3-benzodioxol-5-yl]-5,6,7,8-tetrahydroindolizine-1-carboxamide] |  | > 50

From patent US11697650B2, “Compounds having tetrahydroindolizine-1-carboxamide as BCL-2 inhibitors” (Eil Therapeutics, Inc., priority 2021, dated 2023)
